Measured values from US20240269304A1, “BCL-XL INHIBITOR ANTIBODY-DRUG CONJUGATES AND METHODS OF USE THEREOF” (Novartis AG, priority 2020, published 2024).
Read-outs that look alike come from different tables or passages of the source.

Assays:
[1] = tested on: H1650 human non-small cell lung carcinoma (NSCLC) model; assay: In vivo efficacy of EGFR1-Bcl-xL inhibitor ADCs with different linker payloads in combination with docetaxel, H1650 xenografts (Example 16); design: species or system female SCID mice; details: 7.5 mg/kg i.v. once + docetaxel 7.5 mg/kg iv 24 h later; for ΔTumor volume (mm^3) D21: mean±SEM; for Statistics 21 vs EGFR-L109A-P1 / Statistics D21 vs Vehicle gp / Statistics D46 vs EGFR-L109A-P1: one way ANOVA post hoc Tukey
Protocol: Tumor growth was monitored regularly post cell inoculation and animals were randomized into treatment groups (n=7) with a mean tumor volume of about 150 mm^3. […] The ADCs were administered intravenously (i.v.) once at the start of treatment at 7.5 mg/kg in combination with 7.5 mg/kg docetaxel (Zentiva: 1 ml/20 mg), which was administered i.v. once 24 h after the ADCs. Doses were adjusted to individual mouse body weights.
As a measure of efficacy, the %T/C value was calculated on day 21 according to:
(Δtumor volume treated/Δtumor volume control)*100 Tumor regression was calculated according to: […]
Where Δtumor volumes represent the mean tumor volume on the evaluation day minus the mean tumor volume at the start of the experiment.

ALL-SILL (T-ALL) = assay: CellTiter-Glo viability 72 h, single agent or 1/1 combination, ALL-SIL (Example 9); assay type: cell-based; details: single agent or 1/1 combination as labelled
Protocol: Cell lines were cultured in the media described above at 37° C. in a humidified atmosphere containing 5% CO2. […] Effects of payloads or ADCs on cell viability were assessed after 3 days of incubation at 37° C./5% CO2 by quantification of cellular ATP levels using CellTiter-Glo reagent (Promega Ref: G7571) at 75 μL reagent/well. All the conditions were tested in triplicates. Luminescence was quantified on a multipurpose plate reader. IC50s were calculated using standard four-parametric curve fitting.

SUDHL8 (DLBCL) = assay: CellTiter-Glo viability 72 h, single agent or 1/1 combination, SUDHL8 (Example 9); assay type: cell-based; details: Homo sapiens, SU-DHL-8, single agent or 1/1 combination as labelled
Protocol: (§1) Cell lines were cultured in the media described above at 37° C. in a humidified atmosphere containing 5% CO2. Cells were seeded in 96 well clear bottom plates (96 well clear-bottom, white, Corning reference 3903) and exposed to the payloads or ADCs at single agents or in 1/1 combinations with vincristine, ABT-199 or compound A2 for 72 h (serially diluted; 9 concentrations each, triplicates). Effects of payloads or ADCs on cell viability were assessed after 3 days of incubation at 37° C./5% CO2 by quantification of cellular ATP levels using CellTiter-Glo reagent (Promega Ref: G7571) at 75 μL reagent/well. All the conditions were tested in triplicates. Luminescence was quantified on a multipurpose plate reader. IC50s were calculated using standard four-parametric curve fitting. […] Each experiment was performed at least twice, with results being reproducible.

HPB-ALL (T-ALL) = assay: CellTiter-Glo viability 72 h, single agent or 1/1 combination with vincristine, ABT-199 or Compound A2, HPB-ALL (Example 9); assay type: cell-based; details: Homo sapiens, HPBALL, single agent or 1/1 combination as labelled
Protocol: as §1

LOUCY (T-ALL) = assay: CellTiter-Glo viability 72 h, single agent or 1/1 combination, LOUCY (Example 9); assay type: cell-based; details: single agent or 1/1 combination as labelled
Protocol: as §1

MM1S (MM) = assay: CellTiter-Glo viability 72 h, single agent or 1/1 combination, MM1S (Example 9); assay type: cell-based; details: Homo sapiens, MM1.S, single agent or 1/1 combination as labelled
Protocol: as §1

HCC1569 cells = assay: CellTiterGlo (CTG) cell viability, 120 h, HCC1569, single agent or with 10 nM Paclitaxel; assay type: cell-based
Protocol: HCC1569 cells were cultivated in RPMI supplemented with 10% heat inactivated fetal bovine serum, penicillin (100 IU/ml), streptomycin (100 μg/ml) and L-glutamine (2 mM). Cell lines were cultured at 37° C. in a humidified atmosphere containing 5% 002. […] Effects of ADCs on cell viability were assessed after 5 days of incubation at 37° C./5% CO2 by quantification of cellular ATP levels using CellTiterGlo at 75 μL reagent/well. All the conditions were tested in triplicates. Luminescence was quantified on a multipurpose plate reader. IC50s were calculated using standard four-parametric curve fitting.

[2] = ADC stability study: % aggregates by SEC after incubation at 37° C. for 168 h; assay type: physicochemical
Protocol: Size Exclusion Chromatography: Size exclusion chromatography (SEC) was performed for quality control of each ADCs by measuring monomer percentage of the conjugate. The analysis was performed on analytical column Superdex 200 Increase 5/150 GL (GE Healthcare, 28990945) in isocratic conditions 100% PBS pH7.4 (Sigma Life Science, P3813, 10PAK), flow 0.45 mI/min for 12 minutes. The % aggregate fraction of the conjugate sample was quantified based on the peak area absorbance at 280 nm. Its calculation was based on the ratio between the high molecular weight eluent at 280 nm divided by the sum of peak area absorbance at the same wavelength of the high molecular weight and monomeric eluents multiplied by 100.
Characterization of the exemplary ADCs is summarized in Table 13 (coupling, LC-MS method, OAR, aggregation status, ADO stability and yield). The average OAR values were determined using the above LC-MS methods and the percentage of aggregates was measured by size exclusion chromatography (SEC) during the quality control of the ADO and after the stability study (incubation at 37° C. for 168 h).

[3] = mean, read-out: ALL-SILL (T-ALL) IC50 mean
[4] = n1, read-out: ALL-SILL (T-ALL) IC50 n1
[5] = n2, read-out: ALL-SILL (T-ALL) IC50 n2
[6] = mean, read-out: SUDHL8 (DLBCL) IC50 mean
[7] = n1, read-out: SUDHL8 (DLBCL) IC50 n1
[8] = n2, read-out: SUDHL8 (DLBCL) IC50 n2
[9] = mean, read-out: HPB-ALL (T-ALL) IC50 mean
[10] = n1, read-out: HPB-ALL (T-ALL) IC50 n1
[11] = n2, read-out: HPB-ALL (T-ALL) IC50 n2
[12] = mean, read-out: LOUCY (T-ALL) IC50 mean
[13] = n1, read-out: LOUCY (T-ALL) IC50 n1
[14] = n2, read-out: LOUCY (T-ALL) IC50 n2
[15] = mean, read-out: MM1S (MM) IC50 mean
[16] = n1, read-out: MM1S (MM) IC50 n1
[17] = n2, read-out: MM1S (MM) IC50 n2

SMILES | Regression (%) ([1]; day 21) | ΔTumor volume (mm^3) D21 ([1]; day 21) | Statistics D21 vs Vehicle gp [1] | Statistics D46 vs EGFR-L109A-P1 [1] | IC50 (ALL-SILL (T-ALL); [3]) | IC50 (ALL-SILL (T-ALL); [4]) | IC50 (ALL-SILL (T-ALL); [5]) | IC50 (HPB-ALL (T-ALL); [9]) | IC50 (HPB-ALL (T-ALL); [10]) | IC50 (HPB-ALL (T-ALL); [11]) | IC50 (LOUCY (T-ALL); [12]) | IC50 (LOUCY (T-ALL); [13]) | IC50 (LOUCY (T-ALL); [14]) | also measured
Cc1c(Nc2nc3ccccc3s2)nnc2c1CCCN2c1ccc(-c2cnn(CC34CC5(C)CC(C)(C3)CC(OCCN(CC[C@H](O)CO)C(=O)OCc3ccc(NC(=O)[C@H](CCCNC(N)=O)NC(=O)[C@@H](NC(=O)CCOCCN6C(=O)CC(C)C6=O)C(C)C)cc3CN(C)C(=O)CCOCCOCCOCCOCCOCCOCCOCCOCCOCCOCCOCCOCCOCCOCCOCCOCCOCCOCCOCCOCCOCCOCCOCCOCCOCCC(=O)O)(C5)C4)c2C)c(C(=O)O)n1 (mixture of isomers) [EGFR1-L11C-P19] | −35% | −52 ± 21 mm^3 | P < 0.05 | P < 0.05 | – | – | – | – | – | – | – | – | – | Statistics 21 vs EGFR-L109A-P1 [1]: P < 0.05
CC1(C)CCC(CN2CCN(c3ccc(C(=O)NS(=O)(=O)c4ccc(NCC5CCOCC5)c([N+](=O)[O-])c4)c(Oc4cnc5[nH]ccc5c4)c3)CC2)=C(c2ccc(Cl)cc2)C1 [ABT-199, reference compound] | – | – | – | – | 224 nM | 234 nM | 213 nM | 9.06 µM | 8.92 µM | 9.21 µM | 24.5 nM | 19 nM | 30 nM | IC50 (SUDHL8 (DLBCL); [6]): 6.14 µM; IC50 (SUDHL8 (DLBCL); [7]): 4.82 µM; IC50 (SUDHL8 (DLBCL); [8]): 7.46 µM; IC50 (MM1S (MM); [15]): 4.54 µM; IC50 (MM1S (MM); [16]): 4.47 µM; IC50 (MM1S (MM); [17]): 4.6 µM
CNCCOCCOCCNC(=O)OC[C@@H]1[C@@H]2CCc3nnn(CCOCCOCCOCC(=O)N[C@H](C(=O)N[C@@H](CCCNC(N)=O)C(=O)Nc4ccc(COC(=O)N(C)CC#Cc5ccc(OCCCc6sc(N(C)c7cc(C)c(Nc8nc9ccccc9s8)nn7)nc6C(=O)O)c(F)c5)cc4)C(C)C)c3CC[C@@H]21 [Ab T - L23C-P7] | – | – | – | – | – | – | – | – | – | – | – | – | – | IC50 (HCC1569 cells; read-out: HCC1569 CTG 120 h IC50 nM + Paclitaxel 10 nM Mean N1 and N2, in the presence of 10 nM Paclitaxel, mean): 0.213 nM; IC50 (HCC1569 cells; read-out: HCC1569 CTG 120 h IC50 nM + Paclitaxel 10 nM N1, in the presence of 10 nM Paclitaxel, N1): 0.287 nM; IC50 (HCC1569 cells; read-out: HCC1569 CTG 120 h IC50 nM + Paclitaxel 10 nM N2, in the presence of 10 nM Paclitaxel, N2): 0.139 nM; IC50 (HCC1569 cells; read-out: HCC1569 CTG 120 h IC50 nM Mean N1 and N2, single agent, mean): > 300 nM; IC50 (HCC1569 cells; read-out: HCC1569 CTG 120 h IC50 nM N1, single agent, N1): > 300 nM; IC50 (HCC1569 cells; read-out: HCC1569 CTG 120 h IC50 nM N2, single agent, N2): > 300 nM; Stab w1 +37° C. % Agg (by SEC) [2]: 4%
Cc1c(N(C(=O)c2cc(-c3cc(Cl)ccc3C(=O)N3Cc4ccccc4C[C@H]3CN3CCOCC3)n(C)c2C)c2ccc(O)cc2)cc(C#N)n1C [Compound A2, reference compound] | – | – | – | – | 124 nM | 128 nM | 121 nM | 6.08 µM | 5.85 µM | 6.3 µM | 35.5 nM | 30 nM | 41 nM | IC50 (SUDHL8 (DLBCL); [6]): 5.75 µM; IC50 (SUDHL8 (DLBCL); [7]): 6.67 µM; IC50 (SUDHL8 (DLBCL); [8]): 4.82 µM; IC50 (MM1S (MM); [15]): 7.36 µM; IC50 (MM1S (MM); [16]): 7.36 µM; IC50 (MM1S (MM); [17]): 7.36 µM
Cc1c(Nc2nc3ccccc3s2)nnc2c1CCCN2c1ccc(-c2cnn(CC34CC5(C)CC(C)(C3)CC(OCC[N+]3(Cc6ccc(NC(=O)[C@H](CCCNC(N)=O)NC(=O)[C@@H](NC(=O)CCOCCN7C(=O)CC(C)C7=O)C(C)C)cc6CN(C)C(=O)CCOCCOCCOCCOCCOCCOCCOCCOCCOCCOCCOCCOCCOCCOCCOCCOCCOCCOCCOCCOCCOCCOCCOCCOCCOCCC(=O)O)CCCC3)(C5)C4)c2C)c(C(=O)O)n1 (stereo partly drawn) [EGFR1-L11A-P21] | −8% | −16 ± 20 mm^3 | P < 0.05 | P < 0.05 | – | – | – | – | – | – | – | – | – | –
Cc1c(Nc2nc3ccccc3s2)nnc2c1CCCN2c1ccc(-c2cnn(CC34CC5(C)CC(C)(C3)CC(OCC[N+](C)(C)Cc3ccc(NC(=O)[C@H](CCCNC(N)=O)NC(=O)[C@@H](NC(=O)CCOCCN6C(=O)CC(C)C6=O)C(C)C)cc3CN(C)C(=O)CCOCCOCCOCCOCCOCCOCCOCCOCCOCCOCCOCCOCCOCCOCCOCCOCCOCCOCCOCCOCCOCCOCCOCCOCCOCCC(=O)O)(C5)C4)c2C)c(C(=O)O)n1 (stereo partly drawn) [EGFR1-L11A-P27] | – | 14 ± 18 mm^3 | P < 0.05 | – | – | – | – | – | – | – | – | – | – | T/C (%) D21 ([1]; day 21): 3%
Cc1c(Nc2nc3ccccc3s2)nnc2c1CCCN2c1ccc(-c2cnn(CC34CC5(C)CC(C)(C3)CC(OCCN(CCCO)C(=O)OCc3ccc(NC(=O)[C@H](CCCNC(N)=O)NC(=O)[C@@H](NC(=O)CCOCCN6C(=O)CC(C)C6=O)C(C)C)cc3CN(C)C(=O)CCOCCOCCOCCOCCOCCOCCOCCOCCOCCOCCOCCOCCOCCOCCOCCOCCOCCOCCOCCOCCOCCOCCOCCOCCOCCC(=O)O)(C5)C4)c2C)c(C(=O)O)n1 (stereo partly drawn) [EGFR1-L11C-P25] | −50% | −76 ± 17 mm^3 | P < 0.05 | P < 0.05 | – | – | – | – | – | – | – | – | – | Statistics 21 vs EGFR-L109A-P1 [1]: P < 0.05
CC[C@]1(O)C[C@H]2CN(CCc3c([nH]c4ccccc34)[C@@](C(=O)OC)(c3cc4c(cc3OC)N(C=O)[C@H]3[C@@](O)(C(=O)OC)[C@H](OC(C)=O)[C@]5(CC)C=CCN6CC[C@]43[C@@H]65)C2)C1 [Vincristine, vincristine] | – | – | – | – | 0.089 nM | 0.094 nM | 0.083 nM | 0.000705 µM | 0.00068 µM | 0.00073 µM | 0.73 nM | 0.96 nM | 0.5 nM | –
